In PMC5775428, “Towards an experimental classification system for membrane active peptides” (Scientific Reports, 2018):
Read-outs that look alike come from different tables or passages of the source.

Legend:
Escherichia coli = conditions: Escherichia coli
In short: (§1)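 Peptides were serially diluted from 256 down to 0.5 μM and incubated with the bacterial strains according to CLSI M7-A10. Wells were then inspected by optical microscopy, and MIC assigned where no cells appeared.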

[1] = system: Pseudomonas syringae pv. tabaci; conditions: Pseudomonas syringae pv. tabaci
In short: as §1

Bacillus cereus = conditions: Bacillus cereus
In short: as §1

Xanthomonas campestris = system: Xanthomonas campestris
In short: as §1

Candida albicans = conditions: Candida albicans
In short: (§2)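 MICs determined per CLSI M7-A10 (bacteria) and M27-A3 (yeasts) protocols, peptides tested at 0.5 to 256 μM. MIC taken as the lowest concentration with no cells seen by optical microscopy; three biological repeats with 2 technical replicates each.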

Erwinia carotovora = conditions: Erwinia carotovora
In short: as §1

Cryptococcus neoformans = conditions: Cryptococcus neoformans
In short: as §2

Staphylococcus aureus = conditions: Staphylococcus aureus
In short: as §1

Pseudomonas aeruginosa = conditions: Pseudomonas aeruginosa
In short: as §1

Bacillus subtilis = conditions: Bacillus subtilis
In short: as §1

GSLHGFMYKYLKTLVLRLY [Zm01]
Minimum inhibitory concentration (Escherichia coli; CLSI M7-A10, triplicate 1): 8 µM
Minimum inhibitory concentration, Average (Escherichia coli; average of triplicates): 13.3 µM
Minimum inhibitory concentration (Escherichia coli; triplicate 2): 16 µM
Minimum inhibitory concentration (Escherichia coli; triplicate 3): 16 µM
Minimum inhibitory concentration ([1]; CLSI M7-A10, triplicate 1): 32 µM
Minimum inhibitory concentration, Average ([1]; average of triplicates): 32.0 µM
Minimum inhibitory concentration ([1]; triplicate 2): 32 µM
Minimum inhibitory concentration ([1]; triplicate 3): 32 µM
Minimum inhibitory concentration (Bacillus cereus; CLSI M7-A10, triplicate 1): 64 µM
Minimum inhibitory concentration, Average (Bacillus cereus; average of triplicates): 44.7 µM
Minimum inhibitory concentration (Bacillus cereus; triplicate 2): 64 µM
Minimum inhibitory concentration (Xanthomonas campestris; CLSI M7-A10, triplicate 1): 16 µM
Minimum inhibitory concentration, Average (Xanthomonas campestris; average of triplicates): 16.0 µM
Minimum inhibitory concentration (Xanthomonas campestris; triplicate 2): 16 µM
Minimum inhibitory concentration (Xanthomonas campestris; triplicate 3): 16 µM
Minimum inhibitory concentration (Candida albicans; CLSI M27-A3, 0.5 to 256 μM tested, triplicate 1, also published in ref 7): 4 µM
Minimum inhibitory concentration, Average (Candida albicans; average of triplicates): 6.7 µM
Minimum inhibitory concentration (Candida albicans; triplicate 2): 8 µM
Minimum inhibitory concentration (Candida albicans; triplicate 3): 8 µM
Minimum inhibitory concentration (Erwinia carotovora; CLSI M7-A10, triplicate 1): 16 µM
Minimum inhibitory concentration, Average (Erwinia carotovora; average of triplicates): 16.0 µM
Minimum inhibitory concentration (Erwinia carotovora; triplicate 2): 16 µM
Minimum inhibitory concentration (Erwinia carotovora; triplicate 3): 16 µM
Minimum inhibitory concentration (Cryptococcus neoformans; CLSI M27-A3, triplicate 1): 4 µM
Minimum inhibitory concentration, Average (Cryptococcus neoformans; average of triplicates): 4.0 µM
Minimum inhibitory concentration (Cryptococcus neoformans; triplicate 2): 4 µM
Minimum inhibitory concentration (Cryptococcus neoformans; triplicate 3): 4 µM
Minimum inhibitory concentration (Staphylococcus aureus; CLSI M7-A10, triplicate 1): 16 µM
Minimum inhibitory concentration, Average (Staphylococcus aureus; average of triplicates): 16.0 µM
Minimum inhibitory concentration (Staphylococcus aureus; triplicate 2): 16 µM
Minimum inhibitory concentration (Staphylococcus aureus; triplicate 3): 16 µM
Minimum inhibitory concentration (Pseudomonas aeruginosa; CLSI M7-A10, triplicate 1): 16 µM
Minimum inhibitory concentration, Average (Pseudomonas aeruginosa; average of triplicates): 16.0 µM
Minimum inhibitory concentration (Pseudomonas aeruginosa; triplicate 2): 16 µM
Minimum inhibitory concentration (Pseudomonas aeruginosa; triplicate 3): 16 µM
Minimum inhibitory concentration (Bacillus subtilis; CLSI M7-A10, triplicate 1): 8 µM
Minimum inhibitory concentration, Average (Bacillus subtilis; average of triplicates): 8.0 µM
Minimum inhibitory concentration (Bacillus subtilis; triplicate 2): 8 µM
Minimum inhibitory concentration (Bacillus subtilis; triplicate 3): 8 µM
